“Also recorded” adds a separate entry of the source.
What was measured:
[1] = system: retinal ganglion cells (RGCs)
Procedure: Glutamate-induced toxicity: C57Bl/6J mice were anesthetized by intraperitoneal (i.p.) injection of ketamine (80 mg/kg; Fort Dodge Laboratories, Fort Dodge, Iowa) and xylazine (16 mg/kg; Vitamed, Israel). Their right eyes were punctured with a 27 gauge needle in the upper part of the sclera and a hamilton syringe with a 30-gauge needle was inserted as far as the vitreal body. Each mouse was injected with a total volume of 1 μl saline containing L-glutamate (100 nmol). Mice in one group were also injected intravenously (i.v.) with 5 μg of CSPG-DSs in 200 μl saline (Schori, 2001).
Labeling of retinal ganglion cells: Mice were anesthetized as described above and placed in a stereotactic device. The skull was exposed and the bregma identified and marked. […] A window was drilled in the scalp above the designated coordinates in the right and left hemispheres. […]
Assessment of retinal ganglion cell survival: Retinas were examined for labeled retinal ganglion cells (RGCs) by fluorescence microscopy. Labeled cells from four to six fields of identical size (0.076 mm^2) were counted. […] Cells were counted under the fluorescence microscope (magnification ×800) by observers blinded to the treatment received by the mice. The average number of RGCs per field was calculated for each retina. The number of RGCs in the contralateral (uninjured) eye was also counted and served as an internal control.

[2] = system: PC12 cells; assay: Neurite outgrowth assay in NGF-stimulated PC12 cells; type: cell-based, rat; settings: PC12 cells on collagen, NGF 10 ng/ml, sulfated CSPG-DSs added; mean±SD
Procedure: PC12 cell line: Rat pheochromocytoma (PC12) cells were cultured in DMEM containing 8% horse serum and either 8% FCS (culture medium) or 1% FCS (differentiation medium), and antibiotics. For assays of neurite outgrowth, the cells were plated (10^5 cell/well) on 13-mm glass coverslips, precoated with collagen (500 μg/ml) in 24-well plates. Neurite outgrowth assays: PC12 cells were cultured for 24-72 h while being stimulated with 10 ng/ml NGF, with or without CSPG-DSs. Cell morphology was visualized under a phase-contrast microscope and neurite lengths were measured using ImagePro. At least 200 cells were measured for each condition.

[3] = system: PC12 cells; assay: LPA-induced neurite retraction in differentiated PC12 cells; type: cell-based, rat
Procedure: PC12 cell line: Rat pheochromocytoma (PC12) cells were cultured in DMEM containing 8% horse serum and either 8% FCS (culture medium) or 1% FCS (differentiation medium), and antibiotics. For assays of neurite outgrowth, the cells were plated (10^5 cell/well) on 13-mm glass coverslips, precoated with collagen (500 μg/ml) in 24-well plates. Treatment of PC12 cells with lysophosphatidic acid (LPA). PC12 cells were placed and were differentiated for 3 days in the presence of 100 ng/ml NGF, in collagen-precoated culture dishes (Corning). […] The cells were then fixed with 4% paraformaldehyde (PFA) and analyzed by Nomarski microscopy. The longest neurite of each cell was measured and the results are expressed as their mean±SEM.

[4] = system: human T cells; assay: T-cell chemotaxis towards SDF-1α, transwell; type: cell-based; settings: 2 h pretreatment, FN-coated transwell, 3 h, relative to untreated cells
Procedure: Human T cells. T cells from the peripheral blood of healthy donors were isolated by negative selection using a RosetteSep™ antibody cocktail containing mabs against CD16, CD19, CD36, and CD56 (StemCell Technologies, Vancouver, BC). After incubation with the cocktail for 20 min at room temperature, blood samples were diluted in PBS with 2% fetal bovine serum, loaded on a Ficoll column (ICN Biomedical, Aurora, Ohio), and centrifuged at 1200× g for 20 min at room temperature. The cells were removed from the Ficoll column, washed, and cultured in RPMI containing antibiotics and 10% heat-inactivated FCS. T-cell chemotaxis. Migration of purified human T cells was measured with a transwell apparatus (6.5 mm diameter; Corning, New York, N.Y.) fitted with polycarbonate filters (pore size 5 μm). The filters separating the upper and lower chambers were pretreated with FN (20 μg/ml) for 1 h at 37° C. ^51[Cr]-labeled T cells were preincubated for 2 h with CSPG-DS at the indicated concentrations, and then suspended (2×10^6/ml) in RPMI containing 0.1% BSA, 0.1% L-glutamine, and antibiotics, and added to the upper chamber. The bottom chambers contained the same RPMI medium, with or without human SDF-1α (50 ng/ml). […]

[5] = system: TNF-α; assay: TNF-α secretion by anti-CD3-activated T cells, ELISA; type: cell-based, human; settings: 2 h pretreatment, then anti-CD3 activation 24 h
[6] = system: MHC II; assay: MHC II expression in microglia; type: cell-based
[7] = PC12 cells with LPA plus CSPG-DSs

For `CC(=O)N[C@H]1C(O)O[C@H](COS(=O)(=O)O)[C@H](O)[C@@H]1O[C@@H]1OC(C(=O)O)=C[C@H](O)[C@H]1O` (stereo partly drawn) [CSPG-DS, 2-acetoamido-2-deoxy-3-O-(β-D-gluco-4-enepyranosyluronic acid)-6-O-sulfo-D-galactose], the “neuronal survival in the absence of glutamate” value ([1]; intravitreal injection of CSPG-DSs, no glutamate) was “no effect”, the “number of surviving RGCs per mm2” value ([1]; mice, intravitreal toxic glutamate, single i.v. injection of sulfated CSPG-DSs (5 μg), assessed 1 week later, mean±SEM) was 1965±166 per mm2 and the mean neurite length [2] was 107±7.8 μm. The “LPA-induced neurite collapse / retraction” value ([3]; NGF-differentiated PC12 cells, LPA 1 μg/ml 20 min together with CSPG-DSs (5 or 50 μg/ml)) was “dose-dependent reversal of the retraction process; also recorded: prevented”, the mean neurite length [3, 7] was “beneficial effect” and the “number of neurite-bearing cells” value [3, 7] was “beneficial effect”. The “T-cell migration towards SDF-1α” value [4] was “reduced”, the “secretion of TNF-α” value [5] was “significant reduction” and the “MHC II expression in microglia” value [6] was “activate microglia to express MHC II”.

Source: patent US20070010484A1, “Method for treating or inhibiting the effects of injuries or diseases that result in neuronal degeneration and method for promoting neurogenesis” (YEDA RESEARCH AND DEVELOPMENT CO. LTD., priority 2003, published 2007)
